Drawing on patent US9981963B2, “3-(1H-pyrazol-4-yl)-1H-pyrrolo[2,3-c]pyridine derivatives as NIK inhibitors” (Janssen Pharmaceutica NV, priority 2013, dated 2018), this text covers IC50 and EC50 for 20 compounds.

The target in test [1] is T1, Recombinant Human NF-kappaB-inducing Kinase (NIK/MAP3K14) (Homo sapiens (Human), UniProt Q99558). Kind of test: Biological Assay A: inhibition of recombinant human NIK/MAP3K14 activity (MSD, MBP substrate). As to conditions: 25 μM ATP, 10 nM NIK/MAP3K14, 1 h at 25° C.; averaged over all measurements on all batches; read-out: Biochemical (MSD MBP) IC50. As to the method: Inhibition of Recombinant Human NF-kappaB-inducing Kinase (NIK/MAP3K14) Activity
Assay buffer was 50 mM Tris pH 7.5 containing 1 mM EGTA (ethylene glycol tetraacetic acid), 1 mM DTT (dithiothreitol), 0.1 mM Na3VO4, 5 mM MgCl2, 0.01% Tween® 20. Assays were carried out in 384 well Mesoscale high binding plates which had been coated with myelin basic protein (MBP) and blocked with bovine serum albumin to prevent non-specific protein binding. All compounds tested were dissolved in dimethyl sulfoxide (DMSO) and further dilutions were made in assay buffer. Final DMSO concentration was 1% (v/v) in assays. Incubations consisted of compound (1% DMSO in control and blank wells), 25 μM Adenosine-5′-triphosphate (ATP), and 10 nM NIK/MAP3K14 substituting enzyme with buffer in the blank wells. Incubations were carried out for 1 h at 25° C. and were followed by washing and sequential incubation with rabbit anti-phospho-MBP and anti-rabbit Ig Sulfotag antibody before reading bound Sulfotag on a Mesoscale Discovery. Signal obtained in the wells containing blank samples was subtracted from all other wells and IC50's were determined by fitting a sigmoidal curve to % inhibition of control versus Log10 compound concentration.

Test [2] has as its target T1, Recombinant Human NF-kappaB-inducing Kinase (NIK/MAP3K14). Kind of test: Biological Assay A2: inhibition of auto-phosphorylation of recombinant human NIK/MAP3K14 (AlphaScreen). In kind it is biochemical. Conditions: 25 microM ATP, 0.2 nM GST-tagged NIK/MAP3K14, 1 h at 25° C., averaged values, read-out: Alpha-Screen IC50. The procedure: Inhibition of Auto-phosphorylation of Recombinant Human NF-kappaB-inducing Kinase (NIK/MAP3K14) Activity (AlphaScreen®)
NIK/MAP3K14 auto-phosphorylation activity was measured using the AlphaScreen® (αscreen) format (Perkin Elmer). All compounds tested were dissolved in dimethyl sulfoxide (DMSO) and further dilutions were made in assay buffer. Final DMSO concentration was 1% (v/v) in assays. Assay buffer was 50 mM Tris pH 7.5 containing 1 mM EGTA (ethylene glycol tetraacetic acid), 1 mM DTT (dithiothreitol), 0.1 mM Na3VO4, 5 mM MgCl2, 0.01% Tween® 20. Assays were carried out in 384 well Alphaplates (Perkin Elmer). Incubations consisted of compound, 25 microM Adenosine-5′-triphosphate (ATP), and 0.2 nM NIK/MAP3K14. Incubations were initiated by addition of GST-tagged NIK/MAP3K14 enzyme, carried out for 1 h at 25° C. and terminated by addition of stop buffer containing anti-phospho-IKK Ser176/180 antibody. Protein A Acceptor and Glutathione-Donor beads were added before reading using an EnVision® Multilabel Plate Reader (Perkin Elmer). Signal obtained in the wells containing blank samples was subtracted from all other wells and IC50's were determined by fitting a sigmoidal curve to % inhibition of control versus Log10 compound concentration.
Background: In Alpha technology, singlet oxygen from a donor bead excites a nearby acceptor bead.

Test [3] deals with P-IKKα levels in L363 cells. Kind of test: Biological Assay B: effect of compounds on P-IKKα levels in L363 cells. In kind it is cell-based. As to conditions: Homo sapiens, L-363; L363 cells with BAFF, 2 hr treatment; averaged values; read-out: IKKα Cellular IC50. The procedure: Effect of Compounds on P-IKKα Levels in L363 Cells
All compounds tested were dissolved in DMSO and further dilutions were made in culture medium. Final DMSO concentration was 1% (v/v) in cell assays. The human L363 cells (ATCC) were cultured in RPMI 1640 medium supplemented with GlutaMax and 10% fetal calf serum (PAA). Cells were routinely maintained at densities of 0.2×10^6 cells per ml-1×10^6 cells per ml at 37° C. in a humidified 5% CO2 atmosphere. Cells were passaged twice a week splitting back to obtain the low density. Cells were seeded in 96 well plates (Nunc 167008) at 2×10^6 per ml media in a volume of 75 μl per well plus 25 μl 1 μg/ml recombinant human B-cell activating factor (BAFF/BLyS/TNFSF13B). Seeded cells were incubated at 37° C. in a humidified 5% CO2 atmosphere for 24 hr. Drugs and/or solvents were added (20 μl) to a final volume of 120 μl. Following 2 hr treatment plates were removed from the incubator and cell lysis was achieved by the addition of 30 μl 5× lysis buffer followed by shaking on a plate shaker at 4° C. for 10 min. At the end of this incubation lysed cells were centrifuged at 800×g for 20 min at 4° C. and the lysate was assessed for P-IKKα levels by sandwich immuno-assay carried out in anti-rabbit antibody coated Mesoscale plates. Within an experiment, the results for each treatment were the mean of 2 replicate wells. For initial screening purposes, compounds were tested using an 8 point dilution curve (serial 1:3 dilutions). For each experiment, controls (containing MG132 and BAFF but no test drug) and a blank incubation (containing MG132 and BAFF and 10 μM ADS125117, a test concentration known to give full inhibition) were run in parallel. The blank incubation value was subtracted from all control and sample values. To determine the IC50 a sigmoidal curve was fitted to the plot of % inhibition of control P-IKKα levels versus Log10 compound concentration.

For test [4], the system named is JJN-3 cells. Kind of test: Biological Assay C: antiproliferative activity on JJN-3 cells (CellTiter-Glo). In kind it is cell-based. Conditions: Homo sapiens, 72 hr of treatment, averaged values. As to the method:
(§1) Determination of Antiproliferative Activity on LP-1, L-363 and JJN-3 Cells
(§2) All compounds tested were dissolved in DMSO and further dilutions were made in culture medium. Final DMSO concentration was 0.3% (v/v) in cell proliferation assays. Viability was assessed using CellTiter-Glo cell viability assay kit (Promega). The human LP-1, L-363 and JJN-3 cells (DSMZ) were cultured in RPMI 1640 medium supplemented with 2 mM L-glutamine, and 10% fetal calf serum (PAA). Cells were routinely kept as suspension cells at 37° C. in a humidified 5% CO2 atmosphere. Cells were passaged at a seeding density of 0.2×10^6/ml twice a week. Cells were seeded in black tissue culture treated 96-well plates (Perkin Elmer). Densities used for plating ranged from 2,000 to 6,000 cells per well in a total volume of 75 μl medium. After twenty four hours, drugs and/or solvents were added (25 μl) to a final volume of 100 μl. Following 72 hr of treatment plates were removed from the incubator and allowed to equilibrate to room temperature for approx 10 min. 100 μl CellTiter-Glo reagent was added to each well that was then covered (Perkin Elmer Topseal) and shaken on plate shaker for 10 min. Luminescence was measured on a HTS Topcount (Perkin Elmer). Within an experiment, the results for each treatment were the mean of 2 replicate wells. For initial screening purposes, compounds were tested using a 9 point dilution curve (serial 1:3 dilutions). For each experiment, controls (containing no drug) and a blank incubation (containing cells read at the time of compound addition) were run in parallel. The blank value was subtracted from all control and sample values. For each sample, the mean value for cell growth (in relative light units) was expressed as a percentage of the mean value for cell growth of the control.
(In general: ATP-based viability assays read luminescence as a measure of living cells.)

In test [5] the test system is L-363 cells. Kind of test: Biological Assay C: antiproliferative activity on L-363 cells (CellTiter-Glo). In kind it is cell-based. As to conditions: Homo sapiens, 72 hr of treatment, averaged values. The procedure:
as §1, §2

Test [6] deals with LP-1 cells. Kind of test: Biological Assay C: antiproliferative activity on LP-1 cells (CellTiter-Glo). In kind it is cell-based. Conditions: Homo sapiens, 72 hr of treatment, averaged values. As to the method:
as §1, §2

Structures are written as SMILES.

As a reminder, the IC50 is the point on the concentration scale where inhibition reaches its midpoint. One may read the EC50 as the concentration needed to bring the measured effect to its halfway point. The low end stands for an effect from little substance, the high end for a need for much substance.

T1 sequence (Q99558 whole entry): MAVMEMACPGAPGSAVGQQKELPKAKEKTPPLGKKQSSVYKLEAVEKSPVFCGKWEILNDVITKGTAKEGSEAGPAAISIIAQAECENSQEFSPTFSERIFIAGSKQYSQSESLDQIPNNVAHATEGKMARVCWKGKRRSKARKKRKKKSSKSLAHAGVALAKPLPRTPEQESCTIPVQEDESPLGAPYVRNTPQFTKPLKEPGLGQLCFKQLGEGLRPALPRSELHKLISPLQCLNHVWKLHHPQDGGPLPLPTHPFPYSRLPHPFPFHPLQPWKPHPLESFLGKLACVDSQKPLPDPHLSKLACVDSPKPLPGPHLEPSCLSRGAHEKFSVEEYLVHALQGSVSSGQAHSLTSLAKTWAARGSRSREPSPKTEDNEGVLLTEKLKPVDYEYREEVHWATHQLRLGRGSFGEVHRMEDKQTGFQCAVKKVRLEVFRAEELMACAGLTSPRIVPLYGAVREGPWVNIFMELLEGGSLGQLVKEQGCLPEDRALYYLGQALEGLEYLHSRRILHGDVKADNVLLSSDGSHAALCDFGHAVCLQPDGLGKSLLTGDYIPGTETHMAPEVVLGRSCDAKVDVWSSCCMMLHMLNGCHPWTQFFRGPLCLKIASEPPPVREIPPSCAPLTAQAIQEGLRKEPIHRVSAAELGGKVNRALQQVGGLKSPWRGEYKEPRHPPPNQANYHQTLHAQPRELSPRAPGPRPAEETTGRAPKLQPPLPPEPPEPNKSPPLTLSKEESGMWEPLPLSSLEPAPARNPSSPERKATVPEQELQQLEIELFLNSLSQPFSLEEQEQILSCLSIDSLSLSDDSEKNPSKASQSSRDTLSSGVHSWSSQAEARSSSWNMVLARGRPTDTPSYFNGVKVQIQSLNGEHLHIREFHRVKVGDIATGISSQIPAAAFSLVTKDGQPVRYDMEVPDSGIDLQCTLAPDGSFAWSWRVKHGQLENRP

Consider `OC1(C#Cc2cc3c(-c4cn[nH]c4)c[nH]c3cn2)CCCC1` [Compound 6], for which the IC50 in test [1] turned out to be 19 nM; in test [2], 26 nM; in test [3], 1120 nM. The results for the EC50 in test [4], in test [5] and in test [6] were 6880 nM, 10700 nM and more than 30000 nM, respectively.
In the case of `CCn1cc(-c2cn[nH]c2)c2cc(C#CC(C)(C)O)ncc21` [Compound 9], the values for the IC50 in test [1] and in test [3] were 9 nM and 89 nM, respectively. Further, the EC50 in test [4] was found to be 526 nM; in test [5], 553 nM; in test [6], 3060 nM.
Consider `CN1CCC(n2cc(-c3c[nH]nc3Cl)c3cc(C#CC(C)(C)O)ncc32)CC1` [Compound 41], for which the IC50 in test [2] worked out at 79 nM. Further, the EC50 amounted to 1310 nM in test [4], 478 nM in test [5] and 6110 nM in test [6].
Taken in the same sequence, the figures for `CC(C)CS(=O)(=O)n1cc(-c2cn[nH]c2)c2cc(C#CC(C)(C)O)ncc21` [Compound 26] were 141 nM, 3870 nM, 3330 nM and 5020 nM.
In the case of `CC(C)(O)C#Cc1cc2c(-c3cn[nH]c3)cn(CC(F)(F)F)c2cn1` [Compound 28], the IC50 in test [2] was 43 nM; in test [3] it was 338 nM. The 50% effective concentration (EC50) in test [4] was 1530 nM; in test [5] it was 1020 nM; in test [6], 7380 nM.
As to `[2H]c1n[nH]c([2H])c1-c1cn(CC)c2cnc(C#CC(C)(C)O)cc12` [Compound 40], in test [2], the IC50 was 38 nM. The EC50 in test [4] is 547 nM; in test [5], 260 nM; in test [6], 1950 nM.
Taken in the same sequence, the figures for `[2H]C([2H])([2H])C(O)(C#Cc1cc2c(-c3c[nH]nc3Cl)cn(C3CCN(C)CC3)c2c(C)n1)C([2H])([2H])[2H]` [Compound 45] were 111 nM, 415 nM, 277 nM and 1450 nM.
On to `CC(C)(O)C#Cc1cc2c(-c3cn[nH]c3)cn(C3CCC(CO)CC3)c2cn1` (stereo not shown) [Compound 29], for which the IC50 turned out to be 4 nM in test [2] and 632 nM in test [3]. Also, the EC50 in test [4] worked out at 4170 nM; in test [5], 2430 nM; in test [6] it was 27200 nM.
Take `CC(C)(O)C#Cc1cc2c(-c3cn[nH]c3)cn(C3CCN(CC(F)(F)F)CC3)c2cn1` [Compound 35]: the IC50 in test [2] is 23 nM. Also, the EC50 in test [4] was found to be 820 nM; in test [5], 439 nM; in test [6] it was 2670 nM.
In the case of `CCn1cc(-c2cn[nH]c2)c2cc(C#CC(C)(O)C3CC3)ncc21` (single isomer, unassigned) [Compound 49], in test [2], the IC50 turned out to be 14 nM. Also, the EC50 was found to be 1300 nM in test [4], 861 nM in test [5] and 1700 nM in test [6].
`CCn1cc(-c2cn[nH]c2)c2cc(C#CC(C)O)ncc21` (stereo not shown) [Compound 46]: the IC50 in test [2] is 13 nM. The figures for the EC50 in test [4], in test [5] and in test [6] were 530 nM, 343 nM and 709 nM, respectively.
For `CC(C)(O)C#Cc1cc2c(-c3cn[nH]c3)cn(S(=O)(=O)Cc3ccccc3)c2cn1` [Compound 27], the IC50 in test [2] was determined as 290 nM.
Turning to `CC(C)(O)C#Cc1cc2c(-c3cn[nH]c3)cn(C3CCN(CCF)CC3)c2cn1` [Compound 36], the IC50 in test [2] came out at 63 nM. For the same compound, the EC50 in test [4] was 1620 nM; in test [5] it was 565 nM; in test [6], 9590 nM.
`CCn1cc(-c2c[nH]nc2NC)c2cc(C#CC(C)(C)O)ncc21` [Compound 37]: the 50% inhibitory concentration (IC50) in test [2] turned out to be 274 nM. In addition, the results for the 50% effective concentration (EC50) in test [4], in test [5] and in test [6] were 5660 nM, 4910 nM and more than 30000 nM, respectively.
In the case of `CCn1c(C#N)c(-c2cn[nH]c2)c2cc(C#CC(C)(C)O)ncc21` [Compound 39], in test [2], the IC50 was 47 nM. Besides, the EC50 came out at 4610 nM in test [4], 3920 nM in test [5] and 8000 nM in test [6].
Take `[2H]c1n[nH]c([2H])c1-c1cn(C2CCN(C3CC3)CC2)c2cnc(C#CC(O)(C([2H])([2H])[2H])C([2H])([2H])[2H])cc12` [Compound 43]: in test [2], the IC50 turned out to be 44 nM. Also, the EC50 in test [4] amounted to 354 nM; in test [5], 127 nM; in test [6] it was 976 nM.
Consider `CCn1cc(-c2c[nH]nc2Cl)c2cc(C#CC(C)(C)O)ncc21` [Compound 38], for which, in test [2], the IC50 was 13 nM. For the same compound, the EC50 was found to be 1660 nM in test [4], 1320 nM in test [5] and 3200 nM in test [6].
For the compound `CCn1cc(-c2cn[nH]c2)c2cc(C#CC(C)(O)c3cc(C)on3)ncc21` (stereo not shown) [Compound 48], in test [2], the IC50 turned out to be 14 nM. Moreover, the 50% effective concentration (EC50) in test [4] was 621 nM; in test [5] it was 350 nM; in test [6], 6090 nM.
Taken in the same sequence, the figures for `[2H]c1n[nH]c([2H])c1-c1cn([C@H]2CCN(CCC(F)(F)F)C2)c2cnc(C#CC(O)(C([2H])([2H])[2H])C([2H])([2H])[2H])cc12` [Compound 42] were 63 nM, 2220 nM, 1030 nM and 2670 nM.
Turning to `[2H]c1n[nH]c([2H])c1-c1cn(C2CCN(C)CC2)c2c(C)nc(C#CC(O)(C([2H])([2H])[2H])C([2H])([2H])[2H])cc12` [Compound 44], the IC50 in test [2] came to 84 nM. In addition, the EC50 in test [4] came to 391 nM; in test [5], 269 nM; in test [6], 1540 nM.
